Measured values published in patent publication US20250221966A1, “RXFP1 AGONISTS” (BRISTOL-MYERS SQUIBB COMPANY, priority 2021, published 2025).
pEC50: −log10 of the molar value. Like-named read-outs stand apart in the source and are kept apart here.

Molecular target: T1, human RXFP1 (Homo sapiens, UniProt Q9HBX9)
T1 construct: expressed in transfected cells
T1 sequence (Q9HBX9 1-757): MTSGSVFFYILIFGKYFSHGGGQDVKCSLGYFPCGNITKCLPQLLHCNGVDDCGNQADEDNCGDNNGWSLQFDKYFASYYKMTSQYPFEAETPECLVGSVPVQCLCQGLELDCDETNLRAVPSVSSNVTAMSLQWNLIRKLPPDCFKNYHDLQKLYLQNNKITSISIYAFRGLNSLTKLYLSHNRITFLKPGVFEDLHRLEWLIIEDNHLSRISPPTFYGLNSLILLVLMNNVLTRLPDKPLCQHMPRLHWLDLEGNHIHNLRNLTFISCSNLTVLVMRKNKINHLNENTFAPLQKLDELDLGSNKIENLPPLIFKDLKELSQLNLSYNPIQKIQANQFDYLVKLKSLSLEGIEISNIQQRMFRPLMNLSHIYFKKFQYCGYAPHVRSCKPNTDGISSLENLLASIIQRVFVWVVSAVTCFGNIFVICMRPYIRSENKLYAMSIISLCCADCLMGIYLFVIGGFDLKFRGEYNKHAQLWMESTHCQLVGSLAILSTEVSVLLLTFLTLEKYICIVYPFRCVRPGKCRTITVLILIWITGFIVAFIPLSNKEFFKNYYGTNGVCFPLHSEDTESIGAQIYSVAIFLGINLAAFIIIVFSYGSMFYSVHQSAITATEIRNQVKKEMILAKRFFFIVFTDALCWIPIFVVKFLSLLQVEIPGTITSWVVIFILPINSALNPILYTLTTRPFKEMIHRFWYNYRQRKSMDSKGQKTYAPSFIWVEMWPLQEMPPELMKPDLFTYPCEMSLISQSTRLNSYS
Assay: RXFP1 cAMP assay (hRXFP1 HEK293 cAMP assay, HTRF)
Format: cell-based
Protocol: RXFP1 Cyclic Adenosine Monophosphate (cAMP) Assays. […] Cells were dissociated and suspended in assay buffer. The assay buffer was HBSS buffer (with calcium and magnesium) containing 20 mM HEPES, 0.05% BSA, and 0.5 mM IBMX. Cells (3000 cells per well, except 1500 cell per well for HEK293 cells stably expressing human RXFP1) were added to 384-well Proxiplates (Perkin-Elmer). Cells were immediately treated with test compounds in DMSO (2% final) at final concentrations in the range of 0.010 nM to 50 μM. Cells were incubated for 30 min at room temperature. The level of intracellular cAMP was determined using the HTRF HiRange cAMP assay reagent kit (Cisbio) according to manufacturer's instructions. Solutions of cryptate conjugated anti-cAMP and d2 fluorophore-labelled cAMP were made in a supplied lysis buffer separately. Upon completion of the reaction, the cells were lysed with equal volume of the d2-cAMP solution and anti-cAMP solution. […] The potency and activity of a compound to […] cAMP production was then determined by fitting to a 4-parametric logistic equation from a plot of cAMP level versus compound concentrations.

[1] = HEK293 cells stably expressing human RXFP1, 30 min at room temperature, read-out: cAMP hRXFP1 HEK293 Assay EC50
[2] = cAMP hRXFP1 HEK293 Assay EC50, HEK293 cells stably expressing human RXFP1, 30 min at room temperature

Row | Structure (SMILES) | pEC50 [1] | pEC50 [2]
1 | COc1ccc(C2=NOC3COCC23)cc1C(=O)N[C@H]1[C@@H](C(=O)Nc2cc(OC(F)(F)F)ccc2F)[C@H]2CC[C@@H]1/C2=C\C1CC1 (stereo partly drawn) [compound 762] | 8.70 | –
2 | COc1cc(C2CC2)c(C2=NOC3COCC23)cc1C(=O)N[C@H]1[C@@H](C(=O)Nc2ccc(F)c(C(F)(F)F)c2)[C@H]2CC[C@@H]1/C2=C\C1CC1 (single isomer, unassigned) [compound 695] | 6.08 | –
3 | CNC(=O)OC(C(=O)NOC)c1ccc(F)c(-c2ccc(OC)c(C(=O)N[C@@H]3C4CCC(/C4=C/C4CC4)[C@@H]3C(=O)Nc3ccc(F)c(C(F)(F)F)c3)c2)c1 (stereo partly drawn) [compound 234] | 9.00 | –
4 | COc1ccc(-c2cc(C(NC(=O)CC3CCOCC3)C(=O)O)ccc2F)cc1C(=O)N[C@@H]1C2CCC(/C2=C/C(F)(F)F)[C@@H]1C(=O)Nc1ccc(F)c(C(F)(F)F)c1 (stereo partly drawn) [compound 242] | 8.52 | –
5 | COc1ccc(C2=NOC3(CCCC3)C2)cc1C(=O)N[C@H]1[C@@H](C(=O)Nc2ccc(F)c(C(F)(F)F)c2)[C@H]2CC[C@@H]1/C2=C\C1CC1 [compound 642] | 6.66 | –
6 | COc1ccc(C2=NOC3CC(C(O)C(F)(F)F)CC23)cc1C(=O)N[C@H]1[C@@H](C(=O)Nc2ccc(F)c(C(F)(F)F)c2)[C@H]2CC[C@@H]1/C2=C\C1CC1 (single isomer, unassigned) [Example 530] | 7.64 | –
7 | COc1ccc(C2=NOC3COCC23)cc1C(=O)N[C@H]1[C@@H](C(=O)N[C@@H]2CCOc3ccccc32)[C@H]2CC[C@@H]1/C2=C\C1CC1 (stereo partly drawn) [compound 645] | 6.62 | –
8 | Cc1ccc(C2=NOC3COCC23)cc1C(=O)N[C@H]1[C@@H](C(=O)Nc2ccc(F)c(C(F)(F)F)c2)[C@H]2CC[C@@H]1/C2=C\C1CC1 (single isomer, unassigned) [compound 654] | 6.52 | –
9 | COc1ccc(C2=NOC3COCC23)cc1C(=O)N[C@H]1[C@@H](C(=O)NCc2c(Cl)cccc2Cl)[C@H]2CC[C@@H]1/C2=C\C1CC1 (stereo partly drawn) [compound 570] | 7.20 | –
10 | COc1ccc(-c2ccc(C(=O)NCC(=O)O)cc2F)cc1C(=O)N[C@@H]1C2CCC(/C2=C/c2ccccc2)[C@@H]1C(=O)Nc1ccc(F)c(C(F)(F)F)c1 (stereo partly drawn) [compound 194] | 8.30 | –
11 | COc1ccc(C2CCOC2)cc1C(=O)N[C@H]1[C@@H](C(=O)Nc2ccc(F)c(C(F)(F)F)c2)[C@H]2CC[C@@H]1/C2=C\C(F)(F)F (stereo partly drawn) [Example 360, (1R,2S,3R,4R,Z)—N-(4-fluoro-3-(trifluoromethyl)phenyl)-3-(2-methoxy-5-(tetrahydrofuran-3-yl)benzamido)-7-(2,2,2-trifluoroethylidene)bicyclo[2.2.1]heptane-2-carboxamide] | 5.71 | –
12 | COc1c(F)cc(C2=NOC3CC(CO)CC23)cc1C(=O)N[C@H]1[C@@H](C(=O)NC23CC(C)(C2)C3)[C@H]2CC[C@@H]1/C2=C\C1CC1 (stereo partly drawn) [compound 773] | 8.41 | –
13 | COc1ccc(-c2ccc(C(CC(=O)O)C(F)(F)F)cc2F)cc1C(=O)N[C@H]1[C@@H](C(=O)Nc2ccc(F)c(C(F)(F)F)c2)[C@H]2CC[C@@H]1/C2=C\C1CCCC1 (stereo partly drawn) [compound 891] | 8.43 | –
14 | COc1ccc(-c2cc(C(=O)O)ccc2F)cc1C(=O)N[C@@H]1C2CCC(/C2=C/C2CC2)[C@@H]1C(=O)Nc1ccc(C#N)c(C(F)(F)F)c1 (stereo partly drawn) [compound 270] | – | 7.60
15 | CCC=C1C2CCC1[C@H](C(=O)Nc1ccc(F)c(C(F)(F)F)c1)[C@@H]2NC(=O)c1cc(F)c(F)cc1OC (stereo partly drawn) [compound 47] | 7.33 | –
16 | CNC(=O)OC(C(=O)O)c1ccc(F)c(-c2ccc(OC)c(C(=O)N[C@@H]3C4CCC(/C4=C/C4CC4)[C@@H]3C(=O)Nc3ccc(F)c(C(F)(F)F)c3)c2)c1 (stereo partly drawn) [Example 179] | – | 8.30
17 | COc1ccc(C#N)cc1C(=O)N[C@@H]1C2CCC(/C2=C/c2ccccc2)[C@@H]1C(=O)Nc1ccc(F)c(C(F)(F)F)c1 (stereo partly drawn) [compound 128] | 7.26 | –
18 | COc1ccc(-c2cc(C(OC(=O)N3CCC3)C(F)(F)F)ccc2F)cc1C(=O)N[C@@H]1C2CCC(/C2=C/C2CC2)[C@@H]1C(=O)Nc1ccc(F)c(C(F)(F)F)c1 (stereo partly drawn) [compound 216] | 8.70 | –

Next, values leading:

Row | pEC50 [1] | pEC50 [2] | Structure (SMILES)
19 | 7.60 | – | COc1ccc(-c2cc(C(F)(F)F)cnc2F)cc1C(=O)N[C@@H]1C2CCC(/C2=C/C2CC2)[C@@H]1C(=O)Nc1ccc(F)c(C(F)(F)F)c1 (stereo partly drawn) [compound 282]
20 | 6.64 | – | COc1cc(F)c(F)cc1C(=O)N[C@@H]1C2CCC(C2=C(C)C)[C@@H]1C(=O)Nc1cccc(S(=O)(=O)C(F)(F)F)c1 (stereo partly drawn) [compound 55]
21 | 6.98 | – | COc1ccc(C2=NOC3CC(C(C)(C)O)CC23)cc1C(=O)N[C@H]1[C@@H](C(=O)Nc2ccc(F)c(C(F)(F)F)c2)[C@H]2CC[C@@H]1/C2=C\C1CC1 (single isomer, unassigned) [compound 599]
22 | 7.60 | – | COc1ccc(C2=NOC3CS(=O)(=O)CC23)cc1C(=O)N[C@@H]1C2CCC(/C2=C/C2CC2)[C@@H]1C(=O)Nc1ccc(F)c(C(F)(F)F)c1 (mixture of isomers) [Example 442, (1R,2S,3R,4R,Z)-7-(cyclopropylmethylene)-3-(5-(5,5-dioxido-3a,4,6,6a-tetrahydrothieno[3,4-d]isoxazol-3-yl)-2-methoxybenzamido)-N-(4-fluoro-3-(trifluoromethyl)phenyl)bicyclo[2.2.1]heptane-2-carboxamide]
23 | 8.32 | – | COc1ccc(C2=NOC3CC(CF)CC23)cc1C(=O)N[C@H]1[C@@H](C(=O)Nc2ccc(F)c(C(F)(F)F)c2)[C@H]2CC[C@@H]1/C2=C\C1CC1 (stereo partly drawn) [compound 866]
24 | 6.27 | – | COc1ccc(-c2cc(C(=O)O)ccc2F)cc1C(=O)N[C@@H]1C2CCC(/C2=C/C2CC2)[C@@H]1C(=O)NCc1ccccc1OC(F)(F)F (stereo partly drawn) [compound 306]
25 | 7.96 | – | COc1ccc(C2=NOC(CC(C)(C)O)C2)cc1C(=O)N[C@H]1[C@@H](C(=O)Nc2ccc(F)c(C(F)(F)F)c2)[C@H]2CC[C@@H]1/C2=C\C1CC1 (single isomer, unassigned) [compound 499]
26 | 7.03 | – | COc1cc(F)c(F)cc1C(=O)N[C@@H]1C2CCC(/C2=C/c2cccc(C)c2)[C@@H]1C(=O)Nc1ccc(F)c(C(F)(F)F)c1 (stereo partly drawn) [compound 24]
27 | 9.22 | – | COc1c(F)cc(C2=NOC3CC(CO)CC23)cc1C(=O)N[C@H]1[C@@H](C(=O)N[C@H](C)C2(C)CC2)[C@H]2CC[C@@H]1/C2=C\C1CCCC1 (stereo partly drawn) [compound 811]
28 | 7.51 | – | COc1ccc(C2=NOC3CNCC23)cc1C(=O)N[C@H]1[C@@H](C(=O)Nc2ccc(F)c(C(F)(F)F)c2)[C@H]2CC[C@@H]1/C2=C\C1CC1 (stereo partly drawn) [Example 437, (1R,2S,3R,4R,Z)-7-(cyclopropylmethylene)-N-(4-fluoro-3-(trifluoromethyl)phenyl)-3-(2-methoxy-5-(3a,5,6,6a-tetrahydro-4H-pyrrolo[3,4-d]isoxazol-3-yl)benzamido)bicyclo[2.2.1]heptane-2-carboxamide]
29 | 7.96 | – | COc1ccc(-c2cnc3nn(CC(=O)O)cc3c2)cc1C(=O)N[C@@H]1C2CCC(/C2=C/C(F)(F)F)[C@@H]1C(=O)Nc1ccc(F)c(C(F)(F)F)c1 (stereo partly drawn) [compound 318]
30 | 6.82 | – | COc1ccc(C2=NOC(C(=O)O)C2)cc1C(=O)N[C@@H]1C2CCC(/C2=C/C2CCC2)[C@@H]1C(=O)Nc1ccc(F)c(C(F)(F)F)c1 (stereo partly drawn) [compound 388]
31 | 7.72 | – | COc1cc(F)c(F)cc1C(=O)N[C@@H]1C2CCC(/C2=C/c2ccsc2)[C@@H]1C(=O)Nc1ccc(F)c(C(F)(F)F)c1 (stereo partly drawn) [compound 36]
32 | 8.72 | – | COc1ccc(C2=NOC3COCC23)cc1C(=O)N[C@H]1[C@@H](C(=O)Nc2ccc(F)c(OC(F)(F)F)c2)[C@H]2CC[C@@H]1/C2=C\C1CC1 (stereo partly drawn) [compound 761]
33 | 8.42 | – | COc1c(F)cc(C2=NOC3CC(CO)CC23)cc1C(=O)N[C@H]1[C@@H](C(=O)N[C@H](C)C2(C)CC2)[C@H]2CC[C@@H]1/C2=C\CCC(F)(F)F (stereo partly drawn) [compound 834]
34 | 8.57 | – | COc1ccc(C2=NO[C@@H]3C[C@@H](CO)CN23)cc1C(=O)N[C@H]1[C@@H](C(=O)Nc2ccc(F)c(C(F)(F)F)c2)[C@H]2CC[C@@H]1/C2=C\C1CC1 [compound 849]
35 | 6.00 | – | COc1ccc(C2CCCN2CC(C)(C)O)cc1C(=O)N[C@@H]1C2CCC(C2=CC2CC2)[C@@H]1C(=O)Nc1ccc(F)c(C(F)(F)F)c1 (stereo partly drawn) [compound 698]
36 | – | 6.44 | COc1ccc(-c2cc(C(=O)O)ccc2F)cc1C(=O)N[C@H]1[C@@H](C(=O)Nc2ccc(F)c(C(F)(F)F)c2)[C@H]2CC[C@@H]1/C2=C/c1ccccc1 [compound 91]
